Test results reported in ChEMBL document CHEMBL3785011, “New IKK inhibitors: Synthesis of new imidazo[1,2-a]quinoxaline derivatives using microwave assistance and biological evaluation as IKK inhibitors” (Eur J Med Chem, 2016).
The source made the active and inactive calls. The rule behind the calls is not given here.

Experiments:
[1] = molecular target: T1, Inhibitor of nuclear factor kappa-B kinase subunit alpha (Homo sapiens) (UniProt O15111); assay: Inhibition of human recombinant His tagged IKK1 expressed in baculovirus at 10 uM after 60 mins by Adapta assay
T1 sequence (whole entry): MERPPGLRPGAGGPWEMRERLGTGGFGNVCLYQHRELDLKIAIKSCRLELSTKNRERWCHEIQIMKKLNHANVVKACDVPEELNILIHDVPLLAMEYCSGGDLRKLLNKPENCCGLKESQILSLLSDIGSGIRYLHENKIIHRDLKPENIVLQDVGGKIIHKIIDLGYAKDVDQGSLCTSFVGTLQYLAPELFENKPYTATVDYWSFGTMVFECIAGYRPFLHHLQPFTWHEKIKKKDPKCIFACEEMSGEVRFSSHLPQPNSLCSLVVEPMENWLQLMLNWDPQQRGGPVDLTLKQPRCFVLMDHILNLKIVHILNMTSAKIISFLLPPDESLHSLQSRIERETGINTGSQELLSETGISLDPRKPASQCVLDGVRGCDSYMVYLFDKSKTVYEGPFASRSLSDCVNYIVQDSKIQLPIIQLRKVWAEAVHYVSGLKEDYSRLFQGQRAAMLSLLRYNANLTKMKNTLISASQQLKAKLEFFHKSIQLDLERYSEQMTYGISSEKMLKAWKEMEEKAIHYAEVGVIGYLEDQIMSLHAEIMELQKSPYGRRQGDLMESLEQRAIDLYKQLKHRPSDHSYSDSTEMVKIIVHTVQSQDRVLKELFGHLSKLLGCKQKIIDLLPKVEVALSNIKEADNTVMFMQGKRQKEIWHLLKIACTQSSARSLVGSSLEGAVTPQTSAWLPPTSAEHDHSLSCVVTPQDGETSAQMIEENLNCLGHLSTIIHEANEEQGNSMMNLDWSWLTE

[2] = molecular target: T2, Inhibitor of nuclear factor kappa-B kinase subunit beta (Homo sapiens, UniProt O14920); assay: Inhibition of human recombinant GST tagged IKK2 expressed in baculovirus using Ser/Thr05 peptide as substrate after 60 mins by Z-LYTE assay
T2 sequence (O14920 whole entry): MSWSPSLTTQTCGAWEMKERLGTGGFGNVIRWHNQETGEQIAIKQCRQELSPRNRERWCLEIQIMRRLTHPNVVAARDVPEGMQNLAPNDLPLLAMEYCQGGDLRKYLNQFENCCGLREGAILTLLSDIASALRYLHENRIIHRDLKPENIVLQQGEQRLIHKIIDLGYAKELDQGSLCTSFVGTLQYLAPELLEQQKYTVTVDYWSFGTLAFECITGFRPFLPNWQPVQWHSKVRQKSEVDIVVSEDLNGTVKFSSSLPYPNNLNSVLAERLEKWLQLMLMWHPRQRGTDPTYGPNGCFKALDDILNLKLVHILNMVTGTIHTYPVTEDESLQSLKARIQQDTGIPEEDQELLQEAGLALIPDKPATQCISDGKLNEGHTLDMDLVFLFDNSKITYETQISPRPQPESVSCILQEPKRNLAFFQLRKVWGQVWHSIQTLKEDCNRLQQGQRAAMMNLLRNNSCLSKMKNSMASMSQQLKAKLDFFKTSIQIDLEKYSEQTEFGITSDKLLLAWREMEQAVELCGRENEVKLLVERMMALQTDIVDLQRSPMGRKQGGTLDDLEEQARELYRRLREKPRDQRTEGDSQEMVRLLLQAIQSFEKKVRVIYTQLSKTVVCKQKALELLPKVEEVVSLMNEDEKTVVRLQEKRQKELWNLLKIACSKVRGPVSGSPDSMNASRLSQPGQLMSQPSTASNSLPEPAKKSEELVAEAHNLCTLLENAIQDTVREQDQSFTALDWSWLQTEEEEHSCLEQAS

[3] = molecular target: T3, Inhibitor of nuclear factor kappa-B kinase subunit beta (Homo sapiens) (UniProt O14920); assay: Inhibition of human recombinant GST tagged IKK2 expressed in baculovirus using Ser/Thr05 peptide as substrate at 10 uM after 60 mins by Z-LYTE assay
T3 sequence (whole entry): T2 sequence (O14920 whole entry)

| inhibition [1] [%] | IC50 [2] [nM] | inhibition [3] | SMILES |
| --- | --- | --- | --- |
| 13 | 324 | 72% | CNc1nc2ccc(C)cc2n2c(Br)cnc12 |
| 8 |  | 64% | Cc1ccc2nc(NCCN)c3ncc(C)n3c2c1 |
| 7 |  | 54% | CNc1nc2ccccc2n2ccnc12 |
| 9 |  | 50% | CNc1nc2cc(C)ccc2n2ccnc12 |
| 1 | 773 | 65% | CNc1nc2ccc(C)cc2n2c(C)cnc12 |
| 3 |  | 3% | CNc1nc2ccc(C)cc2n2c(-c3cccc(OC)c3)cnc12 |
| 7 |  | 61% | CNc1nc2ccccc2n2c(C)cnc12 |
| 23 |  | 60% | CNc1nc2ccccc2n2c(Br)cnc12 |
| 26 |  | 54% | CNc1nc2cc(C)ccc2n2c(Br)cnc12 |
| 13 |  | 2% | CNc1nc2ccccc2n2c(-c3cccc(OC)c3)cnc12 |
| 7 |  | inactive | CNc1nc2cc(C)ccc2n2c(-c3cccc(OC)c3)cnc12 |
| 9 | 579 | 64% | CNc1nc2ccc(C)cc2n2ccnc12 |
| 19 |  | 57% | CNc1nc2cc(C)ccc2n2c(C)cnc12 |
